ChEMBL document CHEMBL1909046, “DrugMatrix in vitro pharmacology data”

How the values were obtained:
[1] = target: T1, 5-hydroxytryptamine receptor 2C (Homo sapiens, UniProt P28335); assay: DRUGMATRIX: Serotonin (5-Hydroxytryptamine) 5-HT2C radioligand binding (ligand: [3H] Mesulergine); format: cell membranes, CHO-K1, Membrane; settings: Not Active = under 50% inhibition at 10 µM
T1 sequence (P28335 whole entry): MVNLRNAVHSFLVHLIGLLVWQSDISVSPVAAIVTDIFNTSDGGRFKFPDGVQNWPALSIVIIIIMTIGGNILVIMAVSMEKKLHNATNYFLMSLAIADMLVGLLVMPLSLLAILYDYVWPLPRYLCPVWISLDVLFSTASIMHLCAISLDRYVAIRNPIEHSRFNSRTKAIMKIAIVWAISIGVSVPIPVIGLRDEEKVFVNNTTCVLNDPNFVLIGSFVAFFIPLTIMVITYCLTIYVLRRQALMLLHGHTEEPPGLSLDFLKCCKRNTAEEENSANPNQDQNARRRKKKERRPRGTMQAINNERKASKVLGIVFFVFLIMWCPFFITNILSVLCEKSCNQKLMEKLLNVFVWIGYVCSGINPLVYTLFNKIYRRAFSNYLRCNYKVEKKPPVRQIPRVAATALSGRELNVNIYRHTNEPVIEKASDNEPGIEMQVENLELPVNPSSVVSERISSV

[2] = target: Kappa-type opioid receptor (Homo sapiens, UniProt P41145); assay: DRUGMATRIX: Opiate kappa (OP2, KOP) radioligand binding (ligand: [3H] Diprenorphine); format: cell membranes, HEK293, Membrane; settings: Not Active = under 50% inhibition at 10 µM
Chain of Kappa-type opioid receptor (P41145 whole entry): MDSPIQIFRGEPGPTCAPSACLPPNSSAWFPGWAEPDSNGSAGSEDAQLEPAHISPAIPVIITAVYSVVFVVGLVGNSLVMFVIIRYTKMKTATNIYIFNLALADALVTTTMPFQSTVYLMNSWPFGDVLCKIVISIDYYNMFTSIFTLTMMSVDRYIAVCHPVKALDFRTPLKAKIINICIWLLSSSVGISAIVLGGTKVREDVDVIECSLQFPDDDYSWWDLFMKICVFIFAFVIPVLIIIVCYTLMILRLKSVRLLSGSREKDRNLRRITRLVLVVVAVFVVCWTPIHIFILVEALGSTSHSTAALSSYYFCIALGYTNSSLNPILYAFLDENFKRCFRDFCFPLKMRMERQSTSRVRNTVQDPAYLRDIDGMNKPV

[3] = target: D(3) dopamine receptor (Homo sapiens, UniProt P35462); assay: DRUGMATRIX: Dopamine D3 radioligand binding (ligand: [3H] Spiperone); format: cell membranes, CHO, Membrane
Chain of D(3) dopamine receptor (P35462 whole entry): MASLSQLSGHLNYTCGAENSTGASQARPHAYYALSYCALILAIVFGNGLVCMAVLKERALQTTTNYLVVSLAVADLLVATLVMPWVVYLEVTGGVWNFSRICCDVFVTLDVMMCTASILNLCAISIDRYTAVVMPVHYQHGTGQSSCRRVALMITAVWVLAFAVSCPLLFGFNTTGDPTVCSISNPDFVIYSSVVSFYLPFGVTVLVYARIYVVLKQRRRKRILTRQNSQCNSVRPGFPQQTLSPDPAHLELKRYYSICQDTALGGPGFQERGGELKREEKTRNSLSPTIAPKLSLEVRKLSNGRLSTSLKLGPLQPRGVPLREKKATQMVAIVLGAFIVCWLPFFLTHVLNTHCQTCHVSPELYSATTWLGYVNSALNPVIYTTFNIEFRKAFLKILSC

[4] = target: Vascular endothelial growth factor receptor 1 (Homo sapiens, UniProt P17948); format: cell-based; settings: huvec; also: in other assays of this panel Not Active means under 50% inhibition at 10 µM
Chain of Vascular endothelial growth factor receptor 1 (P17948 whole entry): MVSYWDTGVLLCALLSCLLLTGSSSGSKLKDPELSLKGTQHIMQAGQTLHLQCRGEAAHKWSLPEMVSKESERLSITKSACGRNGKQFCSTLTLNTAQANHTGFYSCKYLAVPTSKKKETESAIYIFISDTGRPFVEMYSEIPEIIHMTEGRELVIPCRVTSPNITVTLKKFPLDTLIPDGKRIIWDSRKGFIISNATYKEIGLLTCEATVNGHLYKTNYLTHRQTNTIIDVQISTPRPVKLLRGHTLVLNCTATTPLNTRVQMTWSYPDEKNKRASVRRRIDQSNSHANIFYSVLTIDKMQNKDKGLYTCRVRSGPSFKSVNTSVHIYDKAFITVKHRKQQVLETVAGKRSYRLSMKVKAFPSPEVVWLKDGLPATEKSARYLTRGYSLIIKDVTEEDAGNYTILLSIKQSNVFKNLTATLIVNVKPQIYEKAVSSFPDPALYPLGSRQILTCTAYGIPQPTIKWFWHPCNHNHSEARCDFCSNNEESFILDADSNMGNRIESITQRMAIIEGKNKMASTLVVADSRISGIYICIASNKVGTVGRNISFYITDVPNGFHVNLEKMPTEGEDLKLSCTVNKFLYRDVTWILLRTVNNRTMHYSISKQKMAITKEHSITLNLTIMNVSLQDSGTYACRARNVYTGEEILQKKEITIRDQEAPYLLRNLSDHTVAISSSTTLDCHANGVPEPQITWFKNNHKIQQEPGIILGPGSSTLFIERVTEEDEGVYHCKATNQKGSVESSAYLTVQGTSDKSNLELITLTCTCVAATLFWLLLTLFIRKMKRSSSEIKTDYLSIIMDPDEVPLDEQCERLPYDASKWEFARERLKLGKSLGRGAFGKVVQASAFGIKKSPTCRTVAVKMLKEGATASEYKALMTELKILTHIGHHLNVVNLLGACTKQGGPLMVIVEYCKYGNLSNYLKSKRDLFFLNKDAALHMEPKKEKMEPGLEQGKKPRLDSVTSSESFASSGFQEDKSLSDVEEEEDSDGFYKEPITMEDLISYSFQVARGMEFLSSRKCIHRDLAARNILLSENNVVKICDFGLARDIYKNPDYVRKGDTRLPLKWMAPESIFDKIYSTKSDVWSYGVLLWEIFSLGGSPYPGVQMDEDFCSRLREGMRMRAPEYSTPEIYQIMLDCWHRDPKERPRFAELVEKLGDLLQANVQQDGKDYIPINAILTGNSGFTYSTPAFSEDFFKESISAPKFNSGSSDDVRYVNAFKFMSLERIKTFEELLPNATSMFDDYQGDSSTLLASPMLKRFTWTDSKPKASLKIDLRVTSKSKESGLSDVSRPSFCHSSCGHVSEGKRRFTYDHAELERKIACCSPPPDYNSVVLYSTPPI

[5] = target: Platelet-activating factor receptor (Homo sapiens, UniProt P25105); format: tissue-based; also: in other assays of this panel Not Active means under 50% inhibition at 10 µM
Chain of Platelet-activating factor receptor (P25105 whole entry): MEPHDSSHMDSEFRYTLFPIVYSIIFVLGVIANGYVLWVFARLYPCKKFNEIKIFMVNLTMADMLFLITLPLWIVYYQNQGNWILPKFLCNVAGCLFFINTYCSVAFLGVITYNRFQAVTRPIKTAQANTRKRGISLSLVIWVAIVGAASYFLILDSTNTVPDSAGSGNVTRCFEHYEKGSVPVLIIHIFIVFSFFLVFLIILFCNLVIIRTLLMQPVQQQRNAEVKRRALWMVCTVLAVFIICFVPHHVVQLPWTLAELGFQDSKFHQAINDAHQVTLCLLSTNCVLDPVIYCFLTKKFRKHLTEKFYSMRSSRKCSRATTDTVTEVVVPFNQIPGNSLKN

[6] = DRUGMATRIX: Calcium Channel Type L, Benzothiazepine radioligand binding (ligand: [3H] Diltiazem); format: cell membranes, Rattus norvegicus, Wistar, Brain, Membrane; settings: Not Active = under 50% inhibition at 10 µM

| Compound | IC50 ([1]; cho-k1) | IC50 ([2]; hek293) | IC50 ([3]; cho) | IC50 [4] | IC50 [5] | IC50 [6] | Ki [6] | Ki [2] | IC50 ([2]; read-out: IC50) | IC50 ([6]; read-out: IC50) | Ki ([6]; read-out: Ki) | IC50 ([1]; read-out: IC50) | Ki ([1]; read-out: Ki) | IC50 ([3]; read-out: IC50) | Ki ([3]; read-out: Ki) | Ki ([1]; cho-k1) | Ki ([3]; cho) | Ki [4] | Ki [5] |
| --- | --- | --- | --- | --- | --- | --- | --- | --- | --- | --- | --- | --- | --- | --- | --- | --- | --- | --- | --- |
| CCOc1nc2cccc(C(=O)O)c2n1Cc1ccc(-c2ccccc2-c2nnn[nH]2)cc1 | Not Active | Not Active | Not Active | Not Active | Not Active | Not Active | Not Active |  |  |  |  |  |  |  |  |  |  |  |  |
| O=C(O)CCCc1cccs1 | Not Active | Not Active | Not Active | Not Active | Not Active | Not Active | Not Active |  |  |  |  |  |  |  |  |  |  |  |  |
| COc1ccccc1N | Not Active | Not Active | Not Active | Not Active | Not Active | Not Active | Not Active |  |  |  |  |  |  |  |  |  |  |  |  |
| O=C(c1ccccc1F)N1CCC(Cc2ccccc2)CC1 | Not Active | Not Active | Not Active | Not Active | Not Active | Not Active | Not Active |  |  |  |  |  |  |  |  |  |  |  |  |
| Cc1c(O)cccc1C(=O)N[C@@H](CSc1ccccc1)[C@H](O)CN1C[C@H]2CCCC[C@H]2C[C@H]1C(=O)NC(C)(C)C | Not Active |  | Not Active | Not Active | Not Active |  |  | 14.4 µM | 36 µM | 14600 nM | 13000 nM |  |  |  |  |  |  |  |  |
| CC(O)COC[C@H]1O[C@@H]2O[C@H]3[C@H](O)[C@@H](O)[C@@H](O[C@H]4[C@H](O)[C@@H](O)[C@@H](O[C@H]5[C@H](O)[C@@H](O)[C@@H](O[C@H]6[C@H](O)[C@@H](O)[C@@H](O[C@H]7[C@H](O)[C@@H](O)[C@@H](O[C@H]8[C@H](O)[C@@H](O)[C@@H](O[C@H]1[C@H](O)[C@H]2O)O[C@@H]8COCC(C)O)O[C@@H]7COCC(C)O)O[C@@H]6COCC(C)O)O[C@@H]5COCC(C)O)O[C@@H]4COCC(C)O)O[C@@H]3COCC(C)O (stereo partly drawn) [2-HYDROXYPROPYL-BETA-CYCLODEXTRIN] |  | Not Active | Not Active | Not Active | Not Active | Not Active | Not Active |  |  |  |  | 1590 nM | 833 nM |  |  |  |  |  |  |
| NC(=O)c1cccc(N)c1 [3-AMINOBENZAMIDE] | Not Active | Not Active | Not Active | Not Active | Not Active | Not Active | Not Active |  |  |  |  |  |  |  |  |  |  |  |  |
| C[C@H]1O[C@H](O[C@H]2[C@H](O)[C@@H](O)[C@@H](O[C@H]3[C@H](O)[C@@H](O)C(O)O[C@@H]3CO)O[C@@H]2CO)[C@H](O)[C@@H](O)[C@@H]1N[C@H]1C=C(CO)[C@@H](O)[C@H](O)[C@H]1O (stereo partly drawn) [ACARBOSE] | Not Active | Not Active | Not Active | Not Active | Not Active | Not Active | Not Active |  |  |  |  |  |  |  |  |  |  |  |  |
| CC[C@H]1[C@@H]2C[C@H]3[C@@H]4N(C)c5ccccc5[C@]45C[C@@H]([C@@H]2[C@H]5O)N3[C@@H]1O [AJMALINE] | Not Active | Not Active | Not Active | Not Active | Not Active | Not Active | Not Active |  |  |  |  |  |  |  |  |  |  |  |  |
| NC12CC3CC(CC(C3)C1)C2 [AMANTADINE] | Not Active | Not Active | Not Active | Not Active | Not Active | Not Active | Not Active |  |  |  |  |  |  |  |  |  |  |  |  |
| NCCCNCCSP(=O)(O)O [AMIFOSTINE] | Not Active | Not Active |  | Not Active | Not Active | Not Active | Not Active |  |  |  |  |  |  | 1930 nM | 655 nM |  |  |  |  |
| CN(C)CCC=C1c2ccccc2CCc2ccccc21 [AMITRIPTYLINE] |  | Not Active |  | Not Active | Not Active |  |  |  |  | 1990 nM | 1770 nM | 6.05 nM | 3.17 nM | 182 nM | 62 nM |  |  |  |  |
| CC(=O)Oc1ccccc1C(=O)O [ASPIRIN] | Not Active | Not Active | Not Active | Not Active | Not Active | Not Active | Not Active |  |  |  |  |  |  |  |  |  |  |  |  |
| CC(C)c1c(C(=O)Nc2ccccc2)c(-c2ccccc2)c(-c2ccc(F)cc2)n1CC[C@@H](O)C[C@@H](O)CC(=O)O [ATORVASTATIN] | Not Active | Not Active | Not Active | Not Active | Not Active | Not Active | Not Active |  |  |  |  |  |  |  |  |  |  |  |  |
| CC(=O)OC[C@H]1O[C@@H](n2ncc(=O)[nH]c2=O)[C@H](OC(C)=O)[C@@H]1OC(C)=O [AZARIBINE] | Not Active | Not Active | Not Active | Not Active | Not Active | Not Active | Not Active |  |  |  |  |  |  |  |  |  |  |  |  |
| C[C@H]1[C@H](NC(=O)/C(=N\OC(C)(C)C(=O)O)c2csc(N)n2)C(=O)N1S(=O)(=O)O [AZTREONAM] | Not Active | Not Active | Not Active | Not Active | Not Active | Not Active | Not Active |  |  |  |  |  |  |  |  |  |  |  |  |
| O=C(O)CCNC(=O)c1ccc(/N=N/c2ccc(O)c(C(=O)O)c2)cc1 [BALSALAZIDE] | Not Active | Not Active | Not Active | Not Active | Not Active | Not Active | Not Active |  |  |  |  |  |  |  |  |  |  |  |  |
| COc1cc(OC)c(C(=O)CCCN2CCCC2)c(OC)c1 [BUFLOMEDIL] | Not Active | Not Active | Not Active | Not Active | Not Active | Not Active | Not Active |  |  |  |  |  |  |  |  |  |  |  |  |
| C[N+](C)(C)C[C@H](O)CC(=O)[O-] [LEVOCARNITINE] | Not Active |  | Not Active | Not Active | Not Active | Not Active | Not Active |  |  |  |  |  |  |  |  |  |  |  |  |
| C[C@]12CC[C@H]3[C@@H](CCC4=CC(=O)CC[C@@H]43)[C@@H]1CC[C@@H]2O [NANDROLONE] | Not Active |  | Not Active | Not Active | Not Active | Not Active | Not Active |  |  |  |  |  |  |  |  |  |  |  |  |
| CN(C)C(=O)Oc1cccc([N+](C)(C)C)c1.[Br-] [NEOSTIGMINE BROMIDE] | Not Active |  | Not Active | Not Active | Not Active | Not Active | Not Active |  |  |  |  |  |  |  |  |  |  |  |  |
| C[C@@H]1O[C@@H](O[C@H]2C[C@@H](O)[C@]3(CO)[C@H]4[C@H](O)C[C@]5(C)[C@@H](C6=CC(=O)OC6)CC[C@]5(O)[C@@H]4CC[C@]3(O)C2)[C@H](O)[C@H](O)[C@H]1O [OUABAIN] | Not Active |  | Not Active | Not Active | Not Active | Not Active | Not Active |  |  |  |  |  |  |  |  |  |  |  |  |
| N=C(N)c1ccc(OCCCCCOc2ccc(C(=N)N)cc2)cc1 [PENTAMIDINE] |  | Not Active |  | Not Active | Not Active |  |  |  |  | 2210 nM | 1960 nM | 3280 nM | 1720 nM |  |  |  |  |  |  |
| NNCCc1ccccc1 [PHENELZINE] | Not Active |  | Not Active | Not Active | Not Active | Not Active | Not Active |  |  |  |  |  |  |  |  |  |  |  |  |
| COBALTOUS CHLORIDE | Not Active |  | Not Active | Not Active | Not Active | Not Active | Not Active |  |  |  |  |  |  |  |  | Not Active | Not Active | Not Active | Not Active |
| COLISTIN | Not Active |  | Not Active | Not Active | Not Active | Not Active | Not Active |  |  |  |  |  |  |  |  | Not Active | Not Active | Not Active | Not Active |
